Reference: PubChem BioAssay AID248 (DTP/NCI, 2004)
Several values for one entry are separate records, joined by “and”; a condition that tells them apart may be missing. Equal entries are not always repeated. Inconclusive results and toxic doses are left out.

System: L1210 leukemia ip in BDF1 mice, survival T/C
Experiment: NCI In Vivo Anticancer Drug Screen. Data for tumor model L1210 Leukemia (intraperitoneal) in B6D2F1 (BDF1) mice
Conditions: endpoint: mean survival time, higher = longer survival
Method in brief: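 Mice bearing the transplanted tumor received compound or vehicle. Survival of the treated group was divided by that of the vehicle-treated control group to give the ratio.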

[1] = dose: 100.0 mg/kg/injection, schedule: Q04DX003 (ip), vehicle: saline with Tween-80
[2] = dose: 100.0 mg/kg/injection, schedule: Q01DX009 (ip), vehicle: saline
[3] = dose: 100.0 mg/kg/injection, schedule: Q04DX003 (ip), vehicle: saline
[4] = dose: 200.0 mg/kg/injection, schedule: Q04DX003 (ip), vehicle: saline
[5] = dose: 50.0 mg/kg/injection, schedule: Q01DX001 (ip), vehicle: carboxymethylcellulose (CMC)
[6] = dose: 100.0 mg/kg/injection, schedule: Q01DX001 (ip), vehicle: carboxymethylcellulose (CMC)
[7] = dose: 200.0 mg/kg/injection, schedule: Q01DX001 (ip), vehicle: carboxymethylcellulose (CMC)

SMILES: O=C(NCCCCCCNC(=O)N1CC1)N1CC1
- T/C (dose: 0.08 mg/kg/injection, schedule: Q01DX009 (ip), vehicle: saline): 107 % of control
- T/C (dose: 0.15 mg/kg/injection, schedule: Q01DX009 (ip), vehicle: saline): 97 % of control
- T/C (dose: 0.19 mg/kg/injection, schedule: Q01DX009 (ip), vehicle: saline): 122 % of control
- T/C (dose: 0.3 mg/kg/injection, schedule: Q01DX009 (ip), vehicle: saline): 119 % of control
- T/C (dose: 0.4 mg/kg/injection, schedule: Q04DX003 (ip), vehicle: saline): 113 % of control
- T/C (dose: 0.66 mg/kg/injection, schedule: Q01DX009 (ip), vehicle: saline): 168 % of control
- T/C (dose: 0.8 mg/kg/injection, schedule: Q04DX003 (ip), vehicle: saline): 115 % of control
- T/C (dose: 1.4 mg/kg/injection, schedule: Q01DX009 (ip), vehicle: saline): 117 % of control
- T/C (dose: 1.7 mg/kg/injection, schedule: Q01DX001 (ip), vehicle: saline): 121 % of control
- T/C (dose: 2.2 mg/kg/injection, schedule: Q01DX009 (ip), vehicle: saline): 86 % of control
- T/C (dose: 2.5 mg/kg/injection, schedule: Q04DX003 (ip), vehicle: saline): 166 % of control
- T/C (dose: 3.75 mg/kg/injection, schedule: Q01DX001 (ip), vehicle: saline): 150 % of control

SMILES: ClCCOc1ccccc1
- T/C (dose: 100.0 mg/kg/injection, schedule: Q01DX001 (ip), vehicle: saline): 95 % of control
- T/C (dose: 200.0 mg/kg/injection, schedule: Q01DX001 (ip), vehicle: saline): 101 % of control

SMILES: O=C1c2ccccc2C(=O)N1CN1C(=O)c2ccccc2C1=O
- T/C [1]: 88 % of control
- T/C (dose: 200.0 mg/kg/injection, schedule: Q04DX003 (ip), vehicle: saline with Tween-80): 91 % of control

SMILES: C[n+]1ccc(/C(N)=N/O)cc1
- T/C (dose: 25.0 mg/kg/injection, schedule: Q01DX009 (ip), vehicle: saline): 94 % of control and 106 % of control
- T/C (dose: 50.0 mg/kg/injection, schedule: Q01DX009 (ip), vehicle: saline): 104 % of control and 105 % of control
- T/C [2]: 101 % of control and 107 % of control
- T/C (dose: 100.0 mg/kg/injection, schedule: Q04DX002 (ip), vehicle: saline): 105 % of control
- T/C [3]: 101 % of control
- T/C (dose: 200.0 mg/kg/injection, schedule: Q04DX002 (ip), vehicle: saline): 107 % of control
- T/C [4]: 97 % of control
- T/C (dose: 400.0 mg/kg/injection, schedule: Q04DX002 (ip), vehicle: saline): 96 % of control

SMILES: Nn1cnc2c(SCc3ccccc3)ncnc21
- T/C [5]: 101 % of control
- T/C (dose: 62.0 mg/kg/injection, schedule: Q01DX015 (ip), vehicle: carboxymethylcellulose (CMC)): 115 % of control
- T/C (dose: 93.0 mg/kg/injection, schedule: Q01DX015 (ip), vehicle: carboxymethylcellulose (CMC)): 121 % of control
- T/C [6]: 101 % of control
- T/C (dose: 140.0 mg/kg/injection, schedule: Q01DX015 (ip), vehicle: carboxymethylcellulose (CMC)): 158 % of control
- T/C [7]: 122 % of control

SMILES: O=C(CCl)c1c(O)cc(O)cc1O
- T/C (dose: 75.0 mg/kg/injection, schedule: Q01DX001 (ip), vehicle: other): 106 % of control
- T/C (dose: 150.0 mg/kg/injection, schedule: Q01DX001 (ip), vehicle: other): 106 % of control
- T/C (dose: 300.0 mg/kg/injection, schedule: Q01DX001 (ip), vehicle: other): 92 % of control

SMILES: CCOC(=O)NC(=S)[S][Sb]([S]C(=S)NC(=O)OCC)[S]c1nc2ccc(N=Nc3ccc(NS(=O)(=O)c4ccc(NC(=O)C(Sc5ncnc6nc[nH]c56)SC5N=C=Nc6nc[nH]c65)cc4)cc3)cc2s1 (stereo not given)
- T/C (dose: 75.0 mg/kg/injection, schedule: Q04DX003 (ip), vehicle: saline): 100 % of control
- T/C (dose: 150.0 mg/kg/injection, schedule: Q04DX003 (ip), vehicle: saline): 91 % of control
- T/C (dose: 300.0 mg/kg/injection, schedule: Q04DX003 (ip), vehicle: saline): 98 % of control

SMILES: Nc1ncnc2c1ccn2C1OC(CO)C(O)C1O (stereo not given)
- T/C (dose: 0.25 mg/kg/injection, schedule: Q01DX Z (ip), vehicle: carboxymethylcellulose (CMC)): 101 % of control
- T/C (dose: 0.5 mg/kg/injection, schedule: Q01DX001 (ip), vehicle: carboxymethylcellulose (CMC)): 108 % of control
- T/C (dose: 0.5 mg/kg/injection, schedule: Q01DX Z (ip), vehicle: carboxymethylcellulose (CMC)): 104 % of control
- T/C (dose: 0.5 mg/kg/injection, schedule: Q02DX009 (ip), vehicle: carboxymethylcellulose (CMC)): 109 % of control
- T/C (dose: 0.5 mg/kg/injection, schedule: Q## X003 (ip), vehicle: carboxymethylcellulose (CMC)): 110 % of control
- T/C (dose: 0.75 mg/kg/injection, schedule: Q01DX Z (ip), vehicle: carboxymethylcellulose (CMC)): 104 % of control
- T/C (dose: 1.0 mg/kg/injection, schedule: Q01DX001 (ip), vehicle: carboxymethylcellulose (CMC)): 113 % of control
- T/C (dose: 1.0 mg/kg/injection, schedule: Q01DX Z (ip), vehicle: carboxymethylcellulose (CMC)): 106 % of control
- T/C (dose: 1.0 mg/kg/injection, schedule: Q02DX009 (ip), vehicle: carboxymethylcellulose (CMC)): 115 % of control
- T/C (dose: 1.0 mg/kg/injection, schedule: Q## X003 (ip), vehicle: carboxymethylcellulose (CMC)): 111 % of control
- T/C (dose: 1.0 mg/kg/injection, schedule: Q## X005 (ip), vehicle: carboxymethylcellulose (CMC)): 113 % of control
- T/C (dose: 1.2 mg/kg/injection, schedule: Q01DX001 (ip), vehicle: carboxymethylcellulose (CMC)): 107 % of control
- T/C (dose: 1.25 mg/kg/injection, schedule: Q01DX Z (ip), vehicle: carboxymethylcellulose (CMC)): 116 % of control
- T/C (dose: 1.9 mg/kg/injection, schedule: Q01DX001 (ip), vehicle: carboxymethylcellulose (CMC)): 119 % of control
- T/C (dose: 2.0 mg/kg/injection, schedule: Q02DX009 (ip), vehicle: carboxymethylcellulose (CMC)): 122 % of control
- T/C (dose: 2.0 mg/kg/injection, schedule: Q## X003 (ip), vehicle: carboxymethylcellulose (CMC)): 123 % of control
- T/C (dose: 2.0 mg/kg/injection, schedule: Q## X005 (ip), vehicle: carboxymethylcellulose (CMC)): 120 % of control
- T/C (dose: 2.5 mg/kg/injection, schedule: Q01DX Z (ip), vehicle: carboxymethylcellulose (CMC)): 98 % of control
- T/C (dose: 4.0 mg/kg/injection, schedule: Q## X005 (ip), vehicle: carboxymethylcellulose (CMC)): 102 % of control

SMILES: O=C(NCCCl)NN1CCCCC1
- T/C (dose: 50.0 mg/kg/injection, schedule: Q04DX003 (ip), vehicle: Klucel (hydroxypropylcellulose) (HPC)): 113 % of control
- T/C (dose: 100.0 mg/kg/injection, schedule: Q04DX003 (ip), vehicle: Klucel (hydroxypropylcellulose) (HPC)): 113 % of control
- T/C (dose: 200.0 mg/kg/injection, schedule: Q04DX003 (ip), vehicle: Klucel (hydroxypropylcellulose) (HPC)): 113 % of control

SMILES: CCOC(=O)C(F)=C(CF)CF
- T/C [5]: 105 % of control
- T/C [6]: 111 % of control
- T/C [7]: 109 % of control
- T/C (dose: 400.0 mg/kg/injection, schedule: Q01DX001 (ip), vehicle: carboxymethylcellulose (CMC)): 94 % of control

SMILES: O=C1OC(=O)C2C1C1(Cl)C(Cl)=C(Cl)C2(Cl)C2C(=O)OC(=O)C21 (stereo not given)
- T/C [2]: 94 % of control
- T/C [3]: 95 % of control
- T/C (dose: 200.0 mg/kg/injection, schedule: Q01DX009 (ip), vehicle: saline): 90 % of control
- T/C [4]: 95 % of control
- T/C (dose: 400.0 mg/kg/injection, schedule: Q01DX009 (ip), vehicle: saline): 91 % of control
- T/C (dose: 400.0 mg/kg/injection, schedule: Q04DX003 (ip), vehicle: saline): 95 % of control

SMILES: FC(F)c1nc2nc(Cl)c(Cl)nc2[nH]1
- T/C (dose: 25.0 mg/kg/injection, schedule: Q01DX009 (ip), vehicle: saline with Tween-80): 100 % of control
- T/C (dose: 25.0 mg/kg/injection, schedule: Q04DX003 (ip), vehicle: saline with Tween-80): 101 % of control
- T/C (dose: 50.0 mg/kg/injection, schedule: Q01DX009 (ip), vehicle: saline with Tween-80): 105 % of control
- T/C (dose: 50.0 mg/kg/injection, schedule: Q04DX003 (ip), vehicle: saline with Tween-80): 97 % of control
- T/C [1]: 102 % of control and 106 % of control

SMILES: O=NN(c1ccccc1)c1ccccc1
- T/C (dose: 100.0 mg/kg/injection, schedule: Q01DX001 (ip), vehicle: Klucel (hydroxypropylcellulose) (HPC)): 98 % of control
- T/C (dose: 100.0 mg/kg/injection, schedule: Q01DX009 (ip), vehicle: Klucel (hydroxypropylcellulose) (HPC)): 100 % of control
- T/C (dose: 200.0 mg/kg/injection, schedule: Q01DX001 (ip), vehicle: Klucel (hydroxypropylcellulose) (HPC)): 101 % of control
- T/C (dose: 200.0 mg/kg/injection, schedule: Q01DX009 (ip), vehicle: Klucel (hydroxypropylcellulose) (HPC)): 102 % of control
- T/C (dose: 400.0 mg/kg/injection, schedule: Q01DX001 (ip), vehicle: Klucel (hydroxypropylcellulose) (HPC)): 87 % of control
- T/C (dose: 400.0 mg/kg/injection, schedule: Q01DX009 (ip), vehicle: Klucel (hydroxypropylcellulose) (HPC)): 92 % of control

SMILES: N=c1ccccn1CC(O)COc1ccccc1 (stereo not given)
- T/C [6]: 92 % of control
